The test system of the series is plantar warts. The experiment in a line: Treatment of plantar warts on a patient's feet with in situ polymeric film versus freezing. Type of series: in vivo, human. On the procedure:
A patient presents to a dermatologist with two similar plantar warts on the soles of their left and right feet. The wart on the right foot is treated by freezing with liquid nitrogen.

`N#N` [liquid nitrogen]: the “pain caused by the treatment (freeze burn)” value (plantar wart on sole of foot) is on record as “makes walking on the foot painful for several days”. Besides, the “time until the wart resolves” value (plantar wart on sole of foot, film re-applied every 3-4 days) is 3 weeks. The “return of the wart after resolution” value (plantar wart, film treatment continued two weeks after resolution) was “has returned after two months”.

These data come from patent US20030143189A1, “Therapy for topical diseases” (priority 2001, published 2003).
